The text below walks through data of ChEMBL document CHEMBL3045408, “Receptor and ligand-based 3D-QSAR study on a series of nonsteroidal anti-inflammatory drugs” (Med Chem Res, 2013).

Structures are written as SMILES.

Test [1] concerns the target T1, Prostaglandin G/H synthase 2 (Homo sapiens, UniProt P35354).
T1 sequence (P35354 whole entry): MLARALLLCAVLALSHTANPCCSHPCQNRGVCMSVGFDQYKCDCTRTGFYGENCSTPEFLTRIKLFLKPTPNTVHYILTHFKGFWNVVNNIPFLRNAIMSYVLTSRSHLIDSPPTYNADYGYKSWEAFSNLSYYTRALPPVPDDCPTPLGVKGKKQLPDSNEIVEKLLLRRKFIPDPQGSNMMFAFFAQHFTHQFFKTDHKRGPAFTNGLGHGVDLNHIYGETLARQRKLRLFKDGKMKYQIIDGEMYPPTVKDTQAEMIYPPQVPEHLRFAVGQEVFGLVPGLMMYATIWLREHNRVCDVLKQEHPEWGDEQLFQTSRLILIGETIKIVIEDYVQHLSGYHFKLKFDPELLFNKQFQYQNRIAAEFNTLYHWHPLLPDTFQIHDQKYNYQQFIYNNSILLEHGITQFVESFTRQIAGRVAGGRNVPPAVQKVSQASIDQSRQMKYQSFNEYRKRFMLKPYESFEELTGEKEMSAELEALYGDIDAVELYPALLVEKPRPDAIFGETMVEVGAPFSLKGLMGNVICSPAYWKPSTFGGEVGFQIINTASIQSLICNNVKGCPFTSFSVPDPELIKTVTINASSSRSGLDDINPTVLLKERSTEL
Kind of test: Inhibition of COX2 (unknown origin).

In test [2] the target is T2, Prostaglandin G/H synthase 2 (Homo sapiens) (UniProt P35354).
T2 sequence (whole entry): T1 sequence (P35354 whole entry)
Kind of test: Ratio of compound IC50 to celecoxib IC50 for Inhibition of COX2 (unknown origin).

On to `CS(=O)(=O)Nc1ccc(/C(=C(\c2ccccc2)C2CCCCC2)c2ccccc2)cc1`, for which the half-inhibitory concentration (IC50) (as a rule, the point on the concentration scale where inhibition reaches its midpoint) in test [1] is greater than 100000 nM. In test [2], the -log(RatioIC50) was -3.15.

Regarding `CCCCC(=C(c1ccccc1)c1cc(C(C)(C)C)c(O)c(C(C)(C)C)c1)c1ccc(S(C)(=O)=O)cc1`, in test [1], the half-inhibitory concentration (IC50) worked out at 360 nM. In addition, the -log(RatioIC50) in test [2] was -0.711.

As to `CS(=O)(=O)c1ccc(/C=C(/C(=O)O)c2cccc(-c3ccc(F)cc3F)c2)cc1`, the 50% inhibitory concentration (IC50) in test [1] was greater than 100000 nM. Also, the -log(RatioIC50) in test [2] is -3.2.

In test [1], `CCC(=C(c1ccccc1)c1ccccc1)c1ccc(S(C)(=O)=O)cc1` showed an IC50 of 1250 nM. In test [2], the -log(RatioIC50) was -1.34.

`CCCCC(=C(c1ccccc1)c1cc(C(C)(C)C)c(C(C)=O)c(C(C)(C)C)c1)c1ccc(S(C)(=O)=O)cc1` yielded a concentration for half-maximal inhibition (IC50) in test [1] greater than 100000 nM. Further, the -log(RatioIC50) in test [2] is -3.2.

As to `CCCC/C(=C(\c1ccccc1)c1ccc(NS(C)(=O)=O)cc1)c1ccccc1`, in test [1], half-maximal inhibition (IC50) was put at 320 nM. In addition, the -log(RatioIC50) in test [2] was -0.66.

Take `CCCCC(=C(c1ccccc1)c1ccccc1)c1ccc(S(C)(=O)=O)cc1`: the -log(RatioIC50) in test [2] is 0.609.

The compound `CS(=O)(=O)c1ccc(C=C(c2ccc(Cl)cc2)c2ccc(Cl)cc2)cc1` returned an IC50 in test [1] of 2000 nM.

With `CC(C)Oc1ccc(-c2cccc(/C(=C\c3ccc(S(C)(=O)=O)cc3)C(=O)O)c2)cc1`, in test [1], the IC50 was greater than 100000 nM. Moreover, the -log(RatioIC50) in test [2] is -3.2.

In test [1], `CC/C(=C(\c1ccccc1)c1ccc(NS(C)(=O)=O)cc1)c1ccccc1` yielded an IC50 of 1800 nM. Also, the -log(RatioIC50) in test [2] was -1.41.
